Results from patent publication US8129417B2, “Substituted octahydrocyclopenta[C]pyrrol-4-amines as calcium channel blockers” (Abbott Laboratories, priority 2008, dated 2012).

Molecular target: human Cav2.2 (Homo sapiens, UniProt Q00975)
Test: Assessment of calcium channel activity using FLIPR (Ca2+ influx in IMR32 cells)
Format: cell-based
Settings: 3 minute pre-incubation with compound (*), 2 μM nifedipine, depolarized with 80 mM KCl
Experimental: (i) In Vitro Methods—Assessment of Calcium Channel Activity Using FLIPR:
The IMR32 cells were maintained in MEM media containing 10% (v/v) FBS, 1% (v/v) antibiotic/antimitotic, 1% (v/v) sodium pyruvate and 1% (v/v) MEM NEAA. Following dissociation in 0.05% (v/v) trypsin/EDTA, cells were seeded into black 1×96-well plates (Corning Cellbind) at a density of 1-1.2×10^5 cells/well and incubated in the maintenance media above for 48 hours at 37° C. […] To determine the IC50 values, the percent inhibition of the compound at each concentration was determined relative to the activity in the absence of inhibitor, and data was fitted using non-linear regression sigmoidal dose response curve analysis with GraphPad Prism®.

Sequence of human Cav2.2 (Q00975 whole entry): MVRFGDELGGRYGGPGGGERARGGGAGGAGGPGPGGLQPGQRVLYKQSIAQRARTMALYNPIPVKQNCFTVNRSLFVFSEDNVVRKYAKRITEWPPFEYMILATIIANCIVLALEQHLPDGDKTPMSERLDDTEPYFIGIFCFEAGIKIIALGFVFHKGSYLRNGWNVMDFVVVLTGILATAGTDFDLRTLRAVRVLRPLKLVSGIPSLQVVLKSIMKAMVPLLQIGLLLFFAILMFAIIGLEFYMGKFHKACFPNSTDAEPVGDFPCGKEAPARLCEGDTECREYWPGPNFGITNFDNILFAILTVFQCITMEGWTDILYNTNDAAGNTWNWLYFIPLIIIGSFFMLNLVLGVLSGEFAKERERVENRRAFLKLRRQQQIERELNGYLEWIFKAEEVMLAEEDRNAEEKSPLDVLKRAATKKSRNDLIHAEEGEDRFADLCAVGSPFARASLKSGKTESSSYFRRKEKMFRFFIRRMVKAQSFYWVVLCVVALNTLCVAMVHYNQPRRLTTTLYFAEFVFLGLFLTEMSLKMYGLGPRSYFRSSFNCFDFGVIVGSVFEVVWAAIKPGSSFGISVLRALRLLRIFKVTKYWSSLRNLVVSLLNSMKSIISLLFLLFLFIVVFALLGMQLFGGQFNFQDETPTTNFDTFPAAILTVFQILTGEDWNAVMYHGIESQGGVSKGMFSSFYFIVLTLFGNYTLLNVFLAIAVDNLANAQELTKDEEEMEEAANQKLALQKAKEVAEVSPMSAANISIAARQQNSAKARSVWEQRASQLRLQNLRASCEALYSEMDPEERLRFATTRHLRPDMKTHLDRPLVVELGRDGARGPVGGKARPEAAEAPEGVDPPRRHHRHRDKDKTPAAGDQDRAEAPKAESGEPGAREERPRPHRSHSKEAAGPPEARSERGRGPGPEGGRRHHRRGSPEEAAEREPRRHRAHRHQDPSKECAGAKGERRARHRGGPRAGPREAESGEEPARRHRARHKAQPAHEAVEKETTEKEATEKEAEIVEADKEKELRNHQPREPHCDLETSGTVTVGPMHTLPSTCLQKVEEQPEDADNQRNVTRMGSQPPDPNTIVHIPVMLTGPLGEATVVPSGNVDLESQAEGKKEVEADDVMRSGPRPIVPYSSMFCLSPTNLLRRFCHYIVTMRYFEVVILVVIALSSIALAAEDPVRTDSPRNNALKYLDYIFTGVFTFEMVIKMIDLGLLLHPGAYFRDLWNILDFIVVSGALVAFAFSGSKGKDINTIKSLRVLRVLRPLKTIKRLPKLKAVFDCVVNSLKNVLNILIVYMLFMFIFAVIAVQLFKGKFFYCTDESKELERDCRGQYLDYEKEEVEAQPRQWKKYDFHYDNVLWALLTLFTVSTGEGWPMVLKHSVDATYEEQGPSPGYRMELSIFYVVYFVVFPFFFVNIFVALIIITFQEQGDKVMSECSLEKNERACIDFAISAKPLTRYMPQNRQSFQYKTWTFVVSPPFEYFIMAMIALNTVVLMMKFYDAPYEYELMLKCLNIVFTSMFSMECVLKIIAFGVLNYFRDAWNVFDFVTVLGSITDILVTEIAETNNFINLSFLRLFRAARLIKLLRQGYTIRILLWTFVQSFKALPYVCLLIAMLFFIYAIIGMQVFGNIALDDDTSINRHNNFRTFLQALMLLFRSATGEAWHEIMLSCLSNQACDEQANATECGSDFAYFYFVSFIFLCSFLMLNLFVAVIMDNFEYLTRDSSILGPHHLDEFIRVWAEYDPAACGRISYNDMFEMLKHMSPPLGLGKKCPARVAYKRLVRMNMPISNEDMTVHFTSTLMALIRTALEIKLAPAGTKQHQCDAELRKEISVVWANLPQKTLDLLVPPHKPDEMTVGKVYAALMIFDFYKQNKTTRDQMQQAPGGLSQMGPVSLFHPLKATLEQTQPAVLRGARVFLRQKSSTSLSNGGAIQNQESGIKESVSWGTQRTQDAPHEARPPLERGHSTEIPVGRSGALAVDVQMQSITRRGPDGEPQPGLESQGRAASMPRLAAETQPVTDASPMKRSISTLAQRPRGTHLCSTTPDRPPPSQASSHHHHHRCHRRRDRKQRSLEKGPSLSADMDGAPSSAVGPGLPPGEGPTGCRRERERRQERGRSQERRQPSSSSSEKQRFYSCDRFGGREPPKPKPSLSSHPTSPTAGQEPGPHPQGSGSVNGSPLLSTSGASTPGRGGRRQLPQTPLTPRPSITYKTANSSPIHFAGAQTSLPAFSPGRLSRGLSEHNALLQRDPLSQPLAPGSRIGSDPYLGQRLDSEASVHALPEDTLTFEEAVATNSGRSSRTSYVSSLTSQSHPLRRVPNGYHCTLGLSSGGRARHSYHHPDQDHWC
Sequence of human Cav2.2 (P54289 25-946 partner limits assumed): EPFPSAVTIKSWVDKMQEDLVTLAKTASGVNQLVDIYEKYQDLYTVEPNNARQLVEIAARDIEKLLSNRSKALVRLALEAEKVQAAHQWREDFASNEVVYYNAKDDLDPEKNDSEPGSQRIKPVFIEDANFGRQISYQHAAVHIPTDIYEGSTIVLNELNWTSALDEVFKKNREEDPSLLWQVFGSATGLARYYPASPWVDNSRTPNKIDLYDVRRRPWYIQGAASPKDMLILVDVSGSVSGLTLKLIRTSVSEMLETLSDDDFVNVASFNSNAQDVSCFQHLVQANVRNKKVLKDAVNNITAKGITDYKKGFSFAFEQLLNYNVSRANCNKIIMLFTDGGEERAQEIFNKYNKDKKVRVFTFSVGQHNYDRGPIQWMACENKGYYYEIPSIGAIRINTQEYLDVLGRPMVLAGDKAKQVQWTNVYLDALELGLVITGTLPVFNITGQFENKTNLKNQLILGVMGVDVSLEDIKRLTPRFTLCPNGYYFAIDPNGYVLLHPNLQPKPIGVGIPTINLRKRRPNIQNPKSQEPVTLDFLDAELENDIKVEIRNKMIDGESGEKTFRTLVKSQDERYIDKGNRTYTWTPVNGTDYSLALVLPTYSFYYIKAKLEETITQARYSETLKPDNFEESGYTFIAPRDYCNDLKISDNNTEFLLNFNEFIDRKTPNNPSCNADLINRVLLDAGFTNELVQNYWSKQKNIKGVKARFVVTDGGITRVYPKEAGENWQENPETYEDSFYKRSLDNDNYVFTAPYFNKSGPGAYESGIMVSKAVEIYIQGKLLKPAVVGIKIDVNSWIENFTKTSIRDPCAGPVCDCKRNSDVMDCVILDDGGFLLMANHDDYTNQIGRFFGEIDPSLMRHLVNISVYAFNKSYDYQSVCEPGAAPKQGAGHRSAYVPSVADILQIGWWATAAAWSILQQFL
Sequence of human Cav2.2 (P54289 947-1103 partner limits assumed): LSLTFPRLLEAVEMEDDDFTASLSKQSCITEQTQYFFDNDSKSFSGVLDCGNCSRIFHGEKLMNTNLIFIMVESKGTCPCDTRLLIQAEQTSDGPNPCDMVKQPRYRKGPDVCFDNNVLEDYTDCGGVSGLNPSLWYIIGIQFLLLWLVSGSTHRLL
Sequence of human Cav2.2 (P54284 whole entry partner): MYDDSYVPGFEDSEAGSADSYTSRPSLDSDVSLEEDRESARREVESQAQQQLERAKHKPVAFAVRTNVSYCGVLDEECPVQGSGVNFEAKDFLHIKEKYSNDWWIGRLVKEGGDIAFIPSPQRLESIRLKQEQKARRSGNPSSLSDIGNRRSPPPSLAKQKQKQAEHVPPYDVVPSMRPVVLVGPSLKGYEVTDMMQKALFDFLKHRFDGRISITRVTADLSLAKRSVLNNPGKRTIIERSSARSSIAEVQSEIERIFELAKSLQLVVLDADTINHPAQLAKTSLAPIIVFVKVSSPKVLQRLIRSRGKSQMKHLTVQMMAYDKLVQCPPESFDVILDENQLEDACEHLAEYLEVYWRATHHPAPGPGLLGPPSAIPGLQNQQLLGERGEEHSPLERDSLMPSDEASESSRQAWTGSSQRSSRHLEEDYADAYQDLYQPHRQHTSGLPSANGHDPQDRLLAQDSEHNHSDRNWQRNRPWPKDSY

Going from `O=C(N[C@@H]1CC[C@H]2CN(Cc3ccccc3)C[C@H]21)C1CCCCCC1` [Example 22, N-[(3aS,4R,6aR)-2-benzyloctahydrocyclopenta[c]pyrrol-4-yl]cycloheptanecarboxamide] to `O=C(N[C@H]1CC[C@@H]2CN(Cc3ccccc3)C[C@@H]21)C(C1CCCCC1)C1CCCCC1` [Example 40, N-[(3aR,4S,6aS)-2-benzyloctahydrocyclopenta[c]pyrrol-4-yl]-2,2-dicyclohexylacetamide], the IC50 falls from 14.7 µM to 3.6 µM (4.1-fold). The second is the more potent here.

`O=C(N[C@@H]1CC[C@H]2CN(Cc3ccccc3)C[C@H]21)C1(c2ccccc2)CCCCC1` [Example 24, N-[(3aS,4R,6aR)-2-benzyloctahydrocyclopenta[c]pyrrol-4-yl]-1-phenylcyclohexanecarboxamide] and `O=C(N[C@H]1CC[C@@H]2CN(Cc3ccccc3)C[C@@H]21)C1(c2ccccc2)CCCCC1` [Example 46, N-[(3aR,4S,6aS)-2-benzyloctahydrocyclopenta[c]pyrrol-4-yl]-1-phenylcyclohexanecarboxamide] are within 1.5-fold of each other in IC50: 2.9 µM for the first, 3.1 µM for the second.

`O=C(N[C@@H]1CC[C@H]2CN(Cc3ccccc3)C[C@H]21)C(Cc1ccccc1)c1ccccc1` (stereo partly drawn) [Example 25, N-[(3aS,4R,6aR)-2-benzyloctahydrocyclopenta[c]pyrrol-4-yl]-2,3-diphenylpropanamide] and `O=C(N[C@H]1CC[C@@H]2CN(Cc3ccccc3)C[C@@H]21)C(Cc1ccccc1)c1ccccc1` (stereo partly drawn) [Example 50, N-[(3aR,4S,6aS)-2-benzyloctahydrocyclopenta[c]pyrrol-4-yl]-2,3-diphenylpropanamide] are within 1.5-fold of each other in IC50: 3.7 µM for the first, 5 µM for the second.

`CC(Cc1ccccc1)C(=O)N[C@@H]1CC[C@H]2CN(Cc3ccccc3)C[C@H]21` (stereo partly drawn) [Example 26, N-[(3aS,4R,6aR)-2-benzyloctahydrocyclopenta[c]pyrrol-4-yl]-2-methyl-3-phenylpropanamide] and `CC(Cc1ccccc1)C(=O)N[C@H]1CC[C@@H]2CN(Cc3ccccc3)C[C@@H]21` (stereo partly drawn) [Example 51, N-[(3aR,4S,6aS)-2-benzyloctahydrocyclopenta[c]pyrrol-4-yl]-2-methyl-3-phenylpropanamide] are within 1.5-fold of each other in IC50: 17.3 µM for the first, 15.2 µM for the second.

First: CC(C)(C(=O)N[C@@H]1CC[C@H]2CN(Cc3ccccc3)C[C@H]21)c1ccccc1 [Example 27, N-[(3aS,4R,6aR)-2-benzyloctahydrocyclopenta[c]pyrrol-4-yl]-2-methyl-2-phenylpropanamide]
Second: CC(C)(C(=O)N[C@H]1CC[C@@H]2CN(Cc3ccccc3)C[C@@H]21)c1ccccc1 [Example 47, N-[(3aR,4S,6aS)-2-benzyloctahydrocyclopenta[c]pyrrol-4-yl]-2-methyl-2-phenylpropanamide]
The IC50 of the first is 1.6-fold lower: 9.7 µM for the first, 15.6 µM for the second.

`O=C(N[C@@H]1CC[C@H]2CN(Cc3ccccc3)C[C@H]21)C1(c2ccccc2)CC1` [Example 28, N-[(3aS,4R,6aR)-2-benzyloctahydrocyclopenta[c]pyrrol-4-yl]-1-phenylcyclopropanecarboxamide] and `O=C(N[C@H]1CC[C@@H]2CN(Cc3ccccc3)C[C@@H]21)C1(c2ccccc2)CC1` [Example 48, N-[(3aR,4S,6aS)-2-benzyloctahydrocyclopenta[c]pyrrol-4-yl]-1-phenylcyclopropanecarboxamide] are within 1.5-fold of each other in IC50: 13.9 µM for the first, 10.5 µM for the second.

`CC(C)(C)C(Cc1ccccc1)C(=O)N[C@@H]1CC[C@H]2CN(Cc3ccccc3)C[C@H]21` (stereo partly drawn) [Example 29, 2-benzyl-N-[(3aS,4R,6aR)-2-benzyloctahydrocyclopenta[c]pyrrol-4-yl]-3,3-dimethylbutanamide] and `CC(C)(C)C(Cc1ccccc1)C(=O)N[C@H]1CC[C@@H]2CN(Cc3ccccc3)C[C@@H]21` (stereo partly drawn) [Example 49, 2-benzyl-N-[(3aR,4S,6aS)-2-benzyloctahydrocyclopenta[c]pyrrol-4-yl]-3,3-dimethylbutanamide] are within 1.5-fold of each other in IC50: 5.6 µM for the first, 4.6 µM for the second.

Compared with `CCC(CC)C(C(=O)N[C@H]1CC[C@@H]2CN(Cc3ccccc3)C[C@@H]21)c1ccccc1` (stereo partly drawn) [Example 44, N-[(3aR,4S,6aS)-2-benzyloctahydrocyclopenta[c]pyrrol-4-yl]-3-ethyl-2-phenylpentanamide], `O=C(N[C@@H]1CC[C@H]2CNC[C@H]21)C(C1CCCCC1)C1CCCCC1` [Example 74, 2,2-dicyclohexyl-N-[(3aS,4R,6aR)-octahydrocyclopenta[c]pyrrol-4-yl]acetamide] is 6.6-fold higher in IC50: 1.7 µM for the first, 11.2 µM for the second.

Same assay, conditions: 60 minute pre-incubation with compound, 2 μM nifedipine, depolarized with 80 mM KCl

First: CC(C)Cc1ccc([C@H](C)C(=O)N[C@@H]2CC[C@H]3CN(Cc4ccccc4)C[C@H]32)cc1 [Example 23, (2S)—N-[(3aS,4R,6aR)-2-benzyloctahydrocyclopenta[c]pyrrol-4-yl]-2-(4-isobutylphenyl)propanamide]
Second: O=C(N[C@H]1CC[C@H]2CN(Cc3ccc(F)cc3)C[C@H]21)C(C1CCCCC1)C1CCCCC1 [Example 56, 2,2-dicyclohexyl-N-[(3aS,4S,6aR)-2-(4-fluorobenzyl)octahydrocyclopenta[c]pyrrol-4-yl]acetamide]
The IC50 of the first is 2.5-fold higher: 2.5 µM for the first, 1 µM for the second. The second is the more potent here.

Compared with `O=C(N[C@H]1CC[C@H]2CN(Cc3ccccc3F)C[C@H]21)C(C1CCCCC1)C1CCCCC1` [Example 55, 2,2-dicyclohexyl-N-[(3aS,4S,6aR)-2-(2-fluorobenzyl)octahydrocyclopenta[c]pyrrol-4-yl]acetamide], `O=C(N[C@H]1CC[C@H]2CN(Cc3ccccc3C(F)(F)F)C[C@H]21)C(C1CCCCC1)C1CCCCC1` [Example 60, 2,2-dicyclohexyl-N-{(3aS,4S,6aR)-2-[2-(trifluoromethyl)benzyl]octahydrocyclopenta[c]pyrrol-4-yl}acetamide] is 1.9-fold higher in IC50: 0.8 µM for the first, 1.5 µM for the second. The first is the more potent here.

`Cc1cccc(CN2C[C@@H]3CC[C@H](NC(=O)C(C4CCCCC4)C4CCCCC4)[C@@H]3C2)c1` [Example 61, 2,2-dicyclohexyl-N-[(3aS,4S,6aR)-2-(3-methylbenzyl)octahydrocyclopenta[c]pyrrol-4-yl]acetamide] and `O=C(N[C@H]1CC[C@H]2CN(Cc3cccc(F)c3)C[C@H]21)C(C1CCCCC1)C1CCCCC1` [Example 64, 2,2-dicyclohexyl-N-[(3aS,4S,6aR)-2-(3-fluorobenzyl)octahydrocyclopenta[c]pyrrol-4-yl]acetamide] are within 1.5-fold of each other in IC50: 1.5 µM for the first, 1.3 µM for the second.

Going from `O=C(N[C@H]1CC[C@H]2CN(Cc3cccc(OC(F)(F)F)c3)C[C@H]21)C(C1CCCCC1)C1CCCCC1` [Example 63, 2,2-dicyclohexyl-N-{(3aS,4S,6aR)-2-[3-(trifluoromethoxy)benzyl]octahydrocyclopenta[c]pyrrol-4-yl}acetamide] to `O=C(N[C@H]1CC[C@H]2CN(CCCc3cccc(F)c3)C[C@H]21)C(C1CCCCC1)C1CCCCC1` [Example 68, 2,2-dicyclohexyl-N-{(3aS,4S,6aR)-2-[3-(3-fluorophenyl)propyl]octahydrocyclopenta[c]pyrrol-4-yl}acetamide], the IC50 rises from 0.6 µM to 1.7 µM (2.8-fold). The first is the more potent here.

Compared with `O=C(N[C@H]1CC[C@H]2CN(CCC(c3ccc(F)cc3)c3ccc(F)cc3)C[C@H]21)C(C1CCCCC1)C1CCCCC1` [Example 65, N-{(3aS,4S,6aR)-2-[3,3-bis(4-fluorophenyl)propyl]octahydrocyclopenta[c]pyrrol-4-yl}-2,2-dicyclohexylacetamide], `O=C(N[C@H]1CC[C@H]2CN(CCCCCC(c3ccc(F)cc3)c3ccc(F)cc3)C[C@H]21)C(C1CCCCC1)C1CCCCC1` [Example 66, N-{(3aS,4S,6aR)-2-[6,6-bis(4-fluorophenyl)hexyl]octahydrocyclopenta[c]pyrrol-4-yl}-2,2-dicyclohexylacetamide] is 5-fold lower in IC50: 4.5 µM for the first, 0.9 µM for the second.

First: O=C(N[C@H]1CC[C@H]2CN(CCCc3ccc(F)cc3)C[C@H]21)C(C1CCCCC1)C1CCCCC1 [Example 71, 2,2-dicyclohexyl-N-{(3aS,4S,6aR)-2-[3-(4-fluorophenyl)propyl]octahydrocyclopenta[c]pyrrol-4-yl}acetamide]
Second: O=C(N[C@@H]1CC[C@H]2CN(CCCCCC(c3ccc(F)cc3)c3ccc(F)cc3)C[C@H]21)C(C1CCCCC1)C1CCCCC1 [Example 78, N-{(3aS,4R,6aR)-2-[6,6-bis(4-fluorophenyl)hexyl]octahydrocyclopenta[c]pyrrol-4-yl}-2,2-dicyclohexylacetamide]
The IC50 of the first is 3-fold higher: 1.2 µM for the first, 0.4 µM for the second. The second is the more potent here.

Same assay, conditions: IMR-32, @ 10 μM, 3 minute pre-incubation (*), read-out: percent inhibition

Compared with `CC[C@@H](C(=O)N[C@H]1CC[C@@H]2CN(Cc3ccccc3)C[C@@H]21)c1ccccc1` [Example 36, (2R)—N-[(3aR,4S,6aS)-2-benzyloctahydrocyclopenta[c]pyrrol-4-yl]-2-phenylbutanamide], `C[C@@H](C(=O)N[C@H]1CC[C@@H]2CN(Cc3ccccc3)C[C@@H]21)c1ccccc1` [Example 37, (2R)—N-[(3aR,4S,6aS)-2-benzyloctahydrocyclopenta[c]pyrrol-4-yl]-2-phenylpropanamide] is lower in inhibition at 10 µM: 44% for the first, 15% for the second.

First: C[C@H](C(=O)N[C@H]1CC[C@@H]2CN(Cc3ccccc3)C[C@@H]21)c1ccccc1 [Example 38, (2S)—N-[(3aR,4S,6aS)-2-benzyloctahydrocyclopenta[c]pyrrol-4-yl]-2-phenylpropanamide]
Second: O=C(N[C@H]1CC[C@@H]2CN(Cc3ccccc3)C[C@@H]21)C(c1ccccc1)C1CC1 (stereo partly drawn) [Example 41, N-[(3aR,4S,6aS)-2-benzyloctahydrocyclopenta[c]pyrrol-4-yl]-2-cyclopropyl-2-phenylacetamide]
The inhibition at 10 µM of the first is lower: 27% for the first, 56% for the second.

First: CC(C)Cc1ccc([C@H](C)C(=O)N[C@H]2CC[C@@H]3CN(Cc4ccccc4)C[C@@H]32)cc1 [Example 39, (2S)—N-[(3aR,4S,6aS)-2-benzyloctahydrocyclopenta[c]pyrrol-4-yl]-2-(4-isobutylphenyl)propanamide]
Second: CC(C)C(C(=O)N[C@H]1CC[C@@H]2CN(C)C[C@@H]21)c1ccccc1 (stereo partly drawn) [Example 84, 3-methyl-N-[(3aR,4S,6aS)-2-methyloctahydrocyclopenta[c]pyrrol-4-yl]-2-phenylbutanamide]
The inhibition at 10 µM of the first is higher: 92% for the first, 5.8% for the second.
